Test results taken from ChEMBL document CHEMBL1201862, “PubChem BioAssay data set” (2004).
Values belong to the compound of their own block, whether it stands above or below them. Calls of active or inactive are those of the source.

Columns and labels:
[1] = IGROV1 cell killing – plate reader, dry powder samples, PAX8 inhibitor project, dose response (AID 743043); type: functional, cell-based; conditions: IGROV-1
Paired box protein Pax-8 = Paired box protein Pax-8 (Homo sapiens, UniProt Q06710); assay: PAX8 transcriptional activity inhibition in RMG-I – RMG-I cells, luciferase, cherry-pick, dose response (AID 687027); type: functional, cell-based;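 further: luciferase reporter driven by Pax8 target thyroperoxidase promoter measured by SteadyGlo luminescence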
[2] = OVCAR8 cell viability loss – plate reader, dry powder samples, PAX8 project, dose response (AID 743197); type: functional, cell-based; conditions: OVCAR-8
[3] = viability loss in LCL cells – cell-based, plate reader, dry powder, set 2, cytotoxicity control, dose response (AID 624367); type: functional
[4] = biological target: Metabotropic glutamate receptor 3 (Rattus norvegicus, UniProt P31422); assay: inhibitors of rat mGlu3 Galpha15 signaling – TREx293 cells, calcium flux, mGlu3 NAM project, dose response (AID 651840); type: functional
[5] = viability loss in HepG2 hepatoma cells – cell-based, cherry-picks, set 5, cytotoxicity control, dose response (AID 1053118); type: functional
[6] = viability loss in HEK293 kidney cells – cell-based, cherry-picks, set 5, cytotoxicity control, dose response (AID 1053117); type: functional
[7] = viability loss in HEK293 cells – cell-based, plate reader, cherry-picked samples, cytotoxicity control, dose response (AID 743446); type: functional
[8] = blockade of melanocortin 4 receptor signaling – cell-based, plate reader, cherry pick, counter-screen for LGR2 antagonist project, dose response (AID 743444); type: functional;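 further: transfected HEK 293 cells stimulated with alpha-MSH peptide; potency of inhibitors of the alpha-MSH evoked signal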
[9] = toxicity toward HepG2 liver cells – cell-based, plate reader, cherry-pick, antagonist series, cytotoxicity control, dose response (AID 743416); type: functional
[10] = inhibition of bursicon-driven LGR2 cAMP signaling – cell-based, HEK293, CRE-luciferase reporter, cherry pick, dose response (AID 743342); type: functional
[11] = A549 cell cytotoxicity, dose response, cytotoxicity control, plate reader, cherry-pick, antagonist series (AID 743412); type: functional, cell-based
[12] = biological target: T1, High affinity choline transporter 1 (Homo sapiens, UniProt Q9GZV3); assay: inhibition of SLC5A7-mediated choline transport – cell-based, HEK-293 hCHT, [3H]-choline uptake, dose response (AID 652177); type: functional
T1 sequence (Q9GZV3 whole entry): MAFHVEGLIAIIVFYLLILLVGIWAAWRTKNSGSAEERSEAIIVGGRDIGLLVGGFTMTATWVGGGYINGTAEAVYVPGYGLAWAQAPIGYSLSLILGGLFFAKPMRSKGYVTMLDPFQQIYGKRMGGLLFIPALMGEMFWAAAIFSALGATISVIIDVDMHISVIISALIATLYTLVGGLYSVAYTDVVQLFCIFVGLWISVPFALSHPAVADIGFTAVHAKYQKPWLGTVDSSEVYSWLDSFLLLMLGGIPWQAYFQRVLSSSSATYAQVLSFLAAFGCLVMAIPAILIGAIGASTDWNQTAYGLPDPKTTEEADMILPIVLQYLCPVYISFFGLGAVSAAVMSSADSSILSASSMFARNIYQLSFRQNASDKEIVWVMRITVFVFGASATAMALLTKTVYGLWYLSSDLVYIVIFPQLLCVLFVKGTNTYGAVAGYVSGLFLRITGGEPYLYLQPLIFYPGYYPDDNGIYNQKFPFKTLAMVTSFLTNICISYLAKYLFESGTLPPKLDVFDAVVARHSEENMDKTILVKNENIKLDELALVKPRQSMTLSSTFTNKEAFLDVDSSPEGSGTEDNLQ

[13] = biological target: Potassium channel subfamily K member 9 (Homo sapiens, UniProt Q9NPC2); assay: KCNK9 flux blockade, concentration-response – cell-based, FluxOR thallium flux, selectivity assay for TASK1 inhibitor project, SAR follow-up (AID 652211); type: functional;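 further: potency is for inhibitors of the channel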
[14] = biological target: Potassium channel subfamily K member 3 (Homo sapiens, UniProt O14649); assay: inhibition of human KCNK3 channel flux – CHO cells, FluxOR thallium flux, SAR follow-up (AID 652212); type: functional
[15] = liver cell line viability loss – HepG2, luminescence plate reader, powder samples, set 2, cytotoxicity control, dose response (AID 651860); type: functional, cell-based
[16] = cytotoxicity in MITF-independent A375 cells – cell-based, CellTiter-Glo luminescence, dry powder, set 4, counter-screen for MITF inhibitor project, dose response (AID 624364); type: functional; conditions: A-375;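 further: A375 melanoma cells are MITF independent so this is a counter screen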
[17] = viability loss in MITF-independent A375 cells – cell-based, CellTiter-Glo luminescence, dry powder, set 2, counter-screen for MITF inhibitor project, dose response (AID 624489); type: functional; conditions: A-375;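 further: actives are compounds lowering A375 viability meaning general cytotoxicity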

Sequence of Potassium channel subfamily K member 3 (O14649 whole entry): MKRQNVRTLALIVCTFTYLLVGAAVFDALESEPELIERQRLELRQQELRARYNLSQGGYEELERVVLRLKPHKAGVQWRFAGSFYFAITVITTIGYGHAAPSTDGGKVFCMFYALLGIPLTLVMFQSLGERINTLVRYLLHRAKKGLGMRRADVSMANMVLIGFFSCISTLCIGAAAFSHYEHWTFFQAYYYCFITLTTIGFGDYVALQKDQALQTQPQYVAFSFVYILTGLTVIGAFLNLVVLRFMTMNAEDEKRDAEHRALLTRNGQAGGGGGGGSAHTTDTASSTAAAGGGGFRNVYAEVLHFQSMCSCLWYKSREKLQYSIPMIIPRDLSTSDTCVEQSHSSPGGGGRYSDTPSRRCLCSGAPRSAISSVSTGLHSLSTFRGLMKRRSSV
Sequence of Potassium channel subfamily K member 9 (Q9NPC2 whole entry): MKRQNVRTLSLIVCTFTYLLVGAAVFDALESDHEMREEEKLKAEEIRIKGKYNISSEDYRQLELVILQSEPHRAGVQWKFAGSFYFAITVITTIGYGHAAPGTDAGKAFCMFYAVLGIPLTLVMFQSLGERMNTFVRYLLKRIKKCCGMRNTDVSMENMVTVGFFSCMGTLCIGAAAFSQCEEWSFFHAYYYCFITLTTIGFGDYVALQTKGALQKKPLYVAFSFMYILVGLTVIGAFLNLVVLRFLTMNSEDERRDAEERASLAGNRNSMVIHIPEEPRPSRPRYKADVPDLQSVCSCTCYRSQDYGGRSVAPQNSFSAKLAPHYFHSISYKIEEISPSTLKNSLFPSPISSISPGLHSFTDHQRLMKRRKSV
Sequence of Paired box protein Pax-8 (Q06710 whole entry): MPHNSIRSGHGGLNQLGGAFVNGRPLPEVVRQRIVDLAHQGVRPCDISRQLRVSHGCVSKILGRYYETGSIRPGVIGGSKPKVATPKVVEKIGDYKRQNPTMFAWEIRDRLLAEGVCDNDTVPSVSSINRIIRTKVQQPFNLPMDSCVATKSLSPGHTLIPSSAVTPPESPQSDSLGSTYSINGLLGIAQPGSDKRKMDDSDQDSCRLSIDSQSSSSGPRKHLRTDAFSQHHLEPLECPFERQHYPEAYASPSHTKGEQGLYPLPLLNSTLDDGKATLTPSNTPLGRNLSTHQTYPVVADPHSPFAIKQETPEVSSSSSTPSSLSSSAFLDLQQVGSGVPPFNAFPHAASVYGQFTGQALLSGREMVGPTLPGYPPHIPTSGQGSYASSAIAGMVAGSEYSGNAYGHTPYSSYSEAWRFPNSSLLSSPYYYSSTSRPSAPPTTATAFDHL
Sequence of Metabotropic glutamate receptor 3 (P31422 whole entry): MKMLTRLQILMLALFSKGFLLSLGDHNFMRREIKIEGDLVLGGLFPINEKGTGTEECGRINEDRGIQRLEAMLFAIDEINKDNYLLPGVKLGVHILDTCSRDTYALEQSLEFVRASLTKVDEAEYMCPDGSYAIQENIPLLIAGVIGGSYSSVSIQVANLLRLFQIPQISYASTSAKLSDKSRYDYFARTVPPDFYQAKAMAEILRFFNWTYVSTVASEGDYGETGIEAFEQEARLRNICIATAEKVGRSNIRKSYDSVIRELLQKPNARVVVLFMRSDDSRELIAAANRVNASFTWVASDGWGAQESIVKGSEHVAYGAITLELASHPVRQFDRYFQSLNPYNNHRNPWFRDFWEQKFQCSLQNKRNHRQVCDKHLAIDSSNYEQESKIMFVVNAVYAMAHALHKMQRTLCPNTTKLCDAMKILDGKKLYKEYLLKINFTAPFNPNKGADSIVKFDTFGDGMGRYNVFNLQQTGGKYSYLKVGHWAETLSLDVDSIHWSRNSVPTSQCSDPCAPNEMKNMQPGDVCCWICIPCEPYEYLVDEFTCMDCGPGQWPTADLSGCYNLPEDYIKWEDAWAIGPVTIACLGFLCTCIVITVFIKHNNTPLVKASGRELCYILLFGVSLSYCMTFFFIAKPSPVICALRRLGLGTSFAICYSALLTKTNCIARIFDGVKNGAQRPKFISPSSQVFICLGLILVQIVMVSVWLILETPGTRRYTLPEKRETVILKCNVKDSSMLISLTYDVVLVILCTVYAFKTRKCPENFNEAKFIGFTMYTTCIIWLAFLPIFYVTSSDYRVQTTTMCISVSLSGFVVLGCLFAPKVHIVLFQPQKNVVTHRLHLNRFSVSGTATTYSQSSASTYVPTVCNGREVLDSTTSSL

Structure (SMILES): COc1cccc(-c2ccc([C@H]3[C@@H](CO)N(C(=O)c4ccccn4)[C@H]3C#N)cc2)c1
- AC50 [1]: 68.1 µM (active)
- AC50 (Paired box protein Pax-8): 7.31 µM (active)
- AC50 [2]: 39.2 µM (active)

Structure (SMILES): Cc1cc(C(=O)Nc2ccc3c(c2)C(=O)N(C)[C@@H]2CC[C@H](CC(=O)NCc4ccc(-c5ccccc5)cc4)O[C@@H]2CO3)no1
- AbsAC35 [3]: 211.39 µM

- IC50 [4]: 3.13 µM
Structure (SMILES): COc1ccc(C#Cc2ccc(C(=O)N3CCC(=O)C(C)(C)C3)cc2)cc1

Structure (SMILES): CO[C@@H]1CN(C)C(=O)c2cc(NC(=O)Nc3cc(Cl)cc(Cl)c3)ccc2OC[C@H](C)NC[C@@H]1C
- AC50 [5]: 13.1 µM (active)
- AC50 [6]: 15.8 µM (active)

Structure (SMILES): COc1ccc(NC(=O)Nc2ccc3c(c2)C(=O)N([C@H](C)CO)C[C@H](C)[C@H](CN(C)CC2CCCCC2)OCCCC[C@H](C)O3)cc1
- AC50 [7]: 40.3 µM (active)
- AC50 [8]: 42.7 µM (active)
- AC50 [9]: 13.7 µM (active)
- AC50 [10]: 38.9 µM (active)
- AC50 [11]: 17.9 µM (active)

- IC50 [12]: 6.81 µM (active)
Structure (SMILES): CCn1cc(CNC(=O)c2ccc(OC)c(OC3CCN(C(C)C)CC3)c2)cn1

- IC50 [13]: 19.2 µM (active)
- IC50 [14]: 0.148 µM (active)
Structure (SMILES): COc1cccc(OC)c1C(=O)Nc1cccc(NC(=O)c2cccc(C)c2)c1

Structure (SMILES): Cc1ccc(S(=O)(=O)Nc2cc(C(C(=O)OC(C)C)C(=O)C(F)(F)F)c(O)c3ccccc23)cc1 (stereo not drawn)
- AC50 [15]: > 52 µM (inactive)

Structure (SMILES): C=CCNC1=C(NCCN(CC)CC)C(=O)c2ccccc2C1=O
- AC50 [16]: 36 µM (active)
- AC50 [17]: 17.4 µM (active)
